Data from patent US9687845B2, “Self-loading microfluidic device and methods of use” (Wisconsin Alumni Research Foundation, priority 2011, dated 2017).
Where a name gives a salt, the structure may show the parent alone.

How the values were obtained:
A. baumannii [1] = assay: Growth in sugars, microfluidic device (phenol red colour change); as to Growth, Device: key: + indicates growth; − indicates no growth; assay type: cell-based; details: for Growth, Device: A. baumannii, sugar 1% (w/v), LB with 0.05% phenol red pH 8.2
Procedure: (§1) Self-loading microfluidic devices were prepared as described above. Reaction wells were filled with different sugar solutions including (1) cellbiose, (2) glycerol, (3) lactose, (4) mannitol, (5) mannose, (6) raffinose, (7) sucrose, (8) trehalose, (9) xylose, and (10) control (no sugar) (FIG. 28). The final concentration of the sugar in each chamber was 1% (w/v). After loading the sugar solutions, the liquid was evaporated as described above. The devices were then assembled and degassed by vacuum.
(§2) Cultures of A. baumannii-1, A. baumannii-2, K. pneumoniea-1, K. pneumoniea-2, S. aureus-1, S. aureus-2, E. coli (UT189), E. faecalis-1, E. faecalis-2, V. cholerae-1, and (11) V. cholerae-2 were grown for 15 hours in LB (pH 7.0). The cultures were then diluted at a ratio of 1:50 in LB containing 0.05% (w/v) phenol red (pH8.2) and added to individual devices using degas-driven flow. Growth of bacteria results in a pH change of the LB that causes a color change from red (illustrated in FIGS. 29 and 30 as filled chambers) to yellow (illustrated in FIGS. 29 and 30 as hatched chambers).

E. coli (UT189) [2] = assay: as above; assay type: cell-based; details: for Growth, Device: E. coli (UT189), sugar 1% (w/v), LB with 0.05% phenol red pH 8.2; for growth in device chamber: E. coli (UT189)-1
Procedure: as §1, §2

E. faecalis [3] = assay: as above; assay type: cell-based; details: E. faecalis-1 and E. faecalis-2; by 18 hours of incubation
Procedure: as §1, §2

K. pneumoniae [4] = assay: as above; assay type: cell-based; details: for Growth, Device: K. pneumoniae, sugar 1% (w/v), LB with 0.05% phenol red pH 8.2; for growth in device chamber: K. pneumoniea-1 and K. pneumoniea-2, by 4 hours of incubation
Procedure: as §1, §2

A. baumannii [5] = assay: Growth in sugars, culture tubes; assay type: cell-based; details: for Growth, Tube: A. baumannii, culture tubes
From the text: (§3) Results observed in microfluidic devices are illustrated in FIGS. 29A-F and 30A-E. The predicted growth as compared to devices and culture tubes are summarized in Table 2.

E. coli (UT189) [6] = assay: Growth in sugars, culture tubes; assay type: cell-based
From the text: as §3

E. faecalis [7] = assay: Growth in sugars, culture tubes; assay type: cell-based
From the text: as §3

K. pneumoniae [8] = assay: Growth in sugars, culture tubes; assay type: cell-based
From the text: as §3

E. faecalis [9] = details: cited from earlier work
S. aureus [10] = details: cited from earlier work
E. coli (UT189) [11] = details: cited from earlier work
S. aureus [12] = assay: Growth in sugars, microfluidic device (phenol red colour change); as to Growth, Device: key: + indicates growth; − indicates no growth; assay type: cell-based; details: for Growth, Device: S. aureus, sugar 1% (w/v), LB with 0.05% phenol red pH 8.2
Procedure: as §1, §2

S. aureus [13] = assay: Growth in sugars, culture tubes; assay type: cell-based; details: for Growth, Tube: culture tubes; as to Growth, Tube: key: + indicates growth; − indicates no growth
From the text: as §3

V. cholerae = assay: Growth in sugars, microfluidic device (phenol red colour change); assay type: cell-based; details: V. cholerae-1 and V. cholerae-2; by 4 hours of incubation
Procedure: as §1, §2

K. pneumoniae [14] = assay: MIC measurement using the self-loading microfluidic device; assay type: cell-based; details: 18 h at 35° C., CAMBH pH 8.2 with 1% glucose and 0.05% phenol red, dilution series 0.5-1024 μg/mL
Procedure: (§4) Minor adjustments were made to procedures mimicking the CLSI guidelines to perform MIC measurements using microfluidic devices prepared as described above. Antibiotic stock solutions (10 mg/mL in sterile deionized water) of vancomycin hydrochloride, tetracycline hydrochloride, and kanamycin monosulfate were used to prepare a 1:10 dilution series. Appropriate amounts of these dilutions were added to sterile deionized water to create a two-fold dilution series that varied from 0.5-1024 μg/mL. Antibiotic solution (2.94 μL) was added to each chamber with the lowest antibiotic concentration located closest to the inlet port and the highest antibiotic concentration located in the chamber closest to the vacuum well. After antibiotic loading, the device was placed in a laminar flow hood to evaporate the liquid. After the liquid was evaporated, the device was assembled by placing the layer of PDMS forming the channel section over the chamber layer containing the dried antibiotic such that the channels connected the chambers. The assembled device was then placed under vacuum.
(§5) The standardized culture was then diluted 1:200 in CAMBH media, pH 8.2 supplemented with 1% glucose and 0.05% phenol red to provide a colorimetric change upon growth. The device was removed from the vacuum and 20 μL of cell suspension was pipetted onto the inlet port. […] Bacterial growth changed the pH of the liquid nutrient media containing the indicator phenol red, and produced a visible color change that was used to identify the cell growth in chambers.

P. mirabilis (HI4320) [15] = assay: as above; assay type: cell-based; details: 18 h at 35° C., CAMBH pH 8.2 with 1% glucose and 0.05% phenol red, dilution series 0.5-1024 μg/mL
Procedure: as §4, §5

P. mirabilis (HI4320) [16] = assay: Off-chip MIC, broth dilution method according to CLSI protocols; assay type: cell-based; parameters: unit not given beside the values; details: CAMHB, 20 h at 35° C.
Procedure: (§6) Off-chip MIC assays using the broth dilution method according to CLSI protocols were performed as control experiments and to validate experimental data obtained with the microfluidic device.

K. pneumoniae [17] = assay: as above; assay type: cell-based; details: CAMHB, 20 h at 35° C.
Procedure: as §6

[18] = tested on: kanamycin-resistant strain of E. coli MG1655; assay: Susceptibility to multiple antibiotics on a single microfluidic device using breakpoint values; assay type: cell-based; details: 18 h; vancomycin 2, 4, 8 μg/mL, tetracycline 0.5, 1, 2 μg/mL, kanamycin 1, 2, 4 μg/mL
From the text: In this Example, a single microfluidic device was used to simultaneously test the susceptibility of the kanamycin-resistant strain of E. coli MG1655 described above to multiple antibiotics using breakpoint values.
In clinical microbiology, a strain is classified as susceptible, intermediate, or resistant based on the relationship of the MIC of an antibiotic to specified ‘breakpoint’ values. Breakpoint values are set by organizations, such as the CLSI, and take into consideration MIC values of wild type strains, pharmacokinetic/pharmacodynamic data, and clinical outcomes. Breakpoint values are available for specific clinically relevant pairings of bacterial species and antibiotics and enable clinical decisions without knowing the exact MIC value.
Specifically, vancomycin, tetracycline, and kanamycin were added to the reaction wells of a single device. The most common breakpoints for vancomycin (susceptible <2 μg/mL, resistant >2 μg/mL), tetracycline (susceptible <1 μg/mL, intermediate=2 μg/mL, resistant >2 μg/mL), and gentamicin (susceptible <2 μg/mL, intermediate=4 μg/mL, resistant >4 μg/mL) were used. As there are no published breakpoints available for kanamycin, the breakpoint values for the structurally related aminoglycoside, gentamicin, against aerobic bacteria was used. A microfluidic device with ten chambers was prepared as described in Example 1 above. The ten chambers were divided into three chambers for each antibiotic vancomycin (2, 4, 8 μg/mL), tetracycline (0.5, 1, 2 μg/mL), and kanamycin (1, 2, 4 μg/mL) and one chamber for a control containing no antibiotic.

[19] = S. aureus-1, by 8 hours of incubation
For Growth, Device in this document: key: + indicates growth; − indicates no growth.
For Growth, Predicted in this document: key: + indicates growth; − indicates no growth.

Row | Compound | Growth, Device (A. baumannii [1]) | Growth, Device (E. coli (UT189) [2]) | growth in device chamber (E. faecalis [3]) | Growth, Device (K. pneumoniae [4]) | Growth, Tube (A. baumannii [5]) | Growth, Tube (E. coli (UT189) [6]) | Growth, Tube (E. faecalis [7]) | Growth, Tube (K. pneumoniae [8]) | Growth, Predicted (E. faecalis [9]) | Growth, Predicted (S. aureus [10]) | Growth, Predicted (E. coli (UT189) [11]) | growth in device chamber (K. pneumoniae [4]) | growth in device chamber (S. aureus [12]; [19]) | Growth, Device (S. aureus [12]) | Growth, Tube (S. aureus [13]) | growth in device chamber (E. coli (UT189) [2]) | also measured
1 | OC[C@H]1O[C@@H](O[C@H]2[C@H](O)[C@@H](O)[C@@H](O)O[C@@H]2CO)[C@H](O)[C@@H](O)[C@@H]1O [Cellbiose, cellbiose] | − | − | grew | − | − | − | + | + | + | − | − |  |  |  |  |  | 
2 | OCC(O)CO [Glycerol, glycerol] | − | − | grew | + | − | − | + | + | + | + | + | grew | grew | + | − |  | growth in culture tubes (S. aureus [13]): no growth was observed
3 | OC[C@H]1O[C@@H](O[C@H]2[C@H](O)[C@@H](O)C(O)O[C@@H]2CO)[C@H](O)[C@@H](O)[C@H]1O (stereo partly shown) [Lactose, lactose] |  | + | grew | − |  | + | + | − | + | + | + |  | growth was not observed | − | + | grew | growth in device chamber (S. aureus [12]; S. aureus-2, by 18 hours of incubation): growth was not observed
4 | OC[C@@H](O)[C@@H](O)[C@H](O)[C@H](O)CO [Mannitol, mannitol] |  | + | grew | + |  | + | + | + | + | + | + | grew | grew | + | + | grew | 
5 | OC[C@H]1O[C@H](OC[C@H]2O[C@H](O[C@]3(CO)O[C@H](CO)[C@@H](O)[C@@H]3O)[C@H](O)[C@@H](O)[C@@H]2O)[C@H](O)[C@@H](O)[C@H]1O [Raffinose, raffinose] | − | − |  | + | − | − | − | + | − | − | − | grew |  |  |  |  | 
6 | OC[C@H]1O[C@@](CO)(O[C@H]2O[C@H](CO)[C@@H](O)[C@H](O)[C@H]2O)[C@@H](O)[C@@H]1O [Sucrose, sucrose] |  | − | grew | + |  | − | + | + | + | + | − | grew | grew | + | + |  | growth in device chamber (V. cholerae): grew
7 | OC[C@H]1O[C@H](O[C@H]2O[C@H](CO)[C@@H](O)[C@H](O)[C@H]2O)[C@H](O)[C@@H](O)[C@@H]1O [Trehalose, trehalose] |  | − | grew | + |  | + | + | + | + | + | + | grew | grew | + | + |  | growth in device chamber (V. cholerae): grew
8 | O=C[C@H](O)[C@@H](O)[C@H](O)CO [Xylose, xylose] | + | − |  | − | − | + | − | + | − | − | + |  |  |  |  | grew | growth in device chamber (A. baumannii [1]; A. baumannii-1 and A. baumannii-2, by 8 hours of incubation): grew; growth in culture tubes (A. baumannii [5]; A. baumannii-1 and A. baumannii-2): did not grow
9 | CN[C@H](CC(C)C)C(=O)N[C@H]1C(=O)N[C@@H](CC(N)=O)C(=O)N[C@H]2C(=O)N[C@H]3C(=O)N[C@H](C(=O)N[C@H](C(=O)O)c4cc(O)cc(O)c4-c4cc3ccc4O)[C@H](O)c3ccc(c(Cl)c3)Oc3cc2cc(c3O[C@@H]2O[C@H](CO)[C@@H](O)[C@H](O)[C@H]2O[C@H]2C[C@](C)(N)[C@H](O)[C@H](C)O2)Oc2ccc(cc2Cl)[C@H]1O [vancomycin, vancomycin hydrochloride] |  |  |  |  |  |  |  |  |  |  |  |  |  |  |  |  | MIC, Device (K. pneumoniae [14]): >1024; MIC, Device (P. mirabilis (HI4320) [15]): >1024; MIC, Broth (P. mirabilis (HI4320) [16]): >1024; MIC, Broth (K. pneumoniae [17]): >1024; effect on growth of the strain [18]: did not have any effect
